Target: T1, Amine oxidase [flavin-containing] A (Rattus norvegicus, UniProt P21396)
T1 sequence (P21396 whole entry): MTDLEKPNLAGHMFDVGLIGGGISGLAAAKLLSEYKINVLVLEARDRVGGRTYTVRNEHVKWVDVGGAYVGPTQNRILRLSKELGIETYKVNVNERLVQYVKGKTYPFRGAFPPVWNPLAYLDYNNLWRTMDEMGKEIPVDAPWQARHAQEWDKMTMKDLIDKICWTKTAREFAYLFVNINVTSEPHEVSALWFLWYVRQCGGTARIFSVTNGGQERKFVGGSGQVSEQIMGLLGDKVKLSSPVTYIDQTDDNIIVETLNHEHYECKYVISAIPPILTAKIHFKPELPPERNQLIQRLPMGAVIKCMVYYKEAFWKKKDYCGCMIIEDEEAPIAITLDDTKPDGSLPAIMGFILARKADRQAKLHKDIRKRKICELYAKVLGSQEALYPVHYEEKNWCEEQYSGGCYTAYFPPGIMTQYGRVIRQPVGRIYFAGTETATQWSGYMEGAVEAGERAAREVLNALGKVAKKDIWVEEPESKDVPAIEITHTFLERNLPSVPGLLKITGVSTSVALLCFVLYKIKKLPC
Assay: Inhibition of Sprague-Dawley rat MAO-A

IC50: 2800 nM
SMILES: C[C@H](NCc1ccc(OCc2cccc(F)c2)cc1)C(N)=O [SAFINAMIDE]
